Data on nine molecules can be found in US20170190671A1, “BIS(ARYL)CATECHOL DERIVATIVES AS HERBICIDES” (E I DU PONT DE NEMOURS AND COMPANY, priority 2014, published 2017).

Holding throughout (type): in vivo
Experiment [1] concerns large (Lg) crabgrass (Digitaria sanguinalis). The experiment in a line: Test A preemergence. The conditions noted are these: for Plant response rating, Crabgrass, Large: 0 to 100 scale; for Crabgrass, Large plant response rating: 0 to 100 scale (0 no effect, 100 complete control). Put shortly:
(§1)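 Scoring: eye-based comparison with untreated controls, 0 for no effect through 100 for complete control, at about day 10. Treatments: directed soil spray preemergence; foliar spray postemergence on 2–10 cm plants at the one- to two-leaf stage. Medium: loam soil with sand.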

For experiment [2], the system named is morningglory (Ipomoea spp.). The experiment in a line: Test A preemergence. The settings on record: for Plant response rating, Morningglory: 0 to 100 scale; for Morningglory plant response rating: 0 to 100 scale (0 no effect, 100 complete control). Put shortly: as §1
A further experiment has as its system corn (Zea mays). The experiment in a line: Test A preemergence. The conditions noted are these: 0 to 100 scale. In a few lines: as §1
Experiment [3] has as its system wheat (Triticum aestivum). Description: Test A preemergence. The settings on record: for Plant response rating, Wheat: 0 to 100 scale; for Wheat plant response rating: 0 to 100 scale (0 no effect, 100 complete control). Put shortly:
as §1

The subject of experiment [4] is velvetleaf (Abutilon theophrasti). Description: Test A preemergence. The settings on record: for Plant response rating, Velvetleaf: 0 to 100 scale; for Velvetleaf plant response rating: 0 to 100 scale (0 no effect, 100 complete control). Put shortly: as §1
Experiment [5] deals with sedge, umbrella (small-flower umbrella sedge, Cyperus difformis). Description: Test C flooded paddy. The conditions noted are these: Flood, scale 0 to 100. The text has this:
(§2) At time of treatment, test pots were flooded to 3 cm above the soil surface, treated by application of test compounds directly to the paddy water, and then maintained at that water depth for the duration of the test. Treated plants and controls were maintained in a greenhouse for 13 to 15 days, after which time all species were compared to controls and visually evaluated. […] A dash (-) response means no test result.

A further experiment relates to rice (Oryza sativa). The experiment in a line: Test C flooded paddy. The settings on record: Flood, scale 0 to 100.
From the text: as §2

Experiment [6] relates to barnyardgrass (Echinochloa crus-galli). The experiment in a line: Test C flooded paddy. The conditions noted are these: Flood, scale 0 to 100.
From the text: as §2

The test system of experiment [7] is ducksalad (Heteranthera limosa). Description: Test C flooded paddy. The conditions noted are these: Flood, scale 0 to 100.
From the text: as §2

For experiment [8], the system named is cocklebur (common cocklebur, Xanthium strumarium). The experiment in a line: Test E preemergence. The conditions noted are these: scale 0 to 100. Put shortly: (§3)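 Preemergence: seeds in silt loam treated with compound in non-phytotoxic solvent with surfactant. Postemergence: plants at 1- to 4-leaf stage (2–18 cm) in peat-based medium sprayed likewise. Greenhouse 14–21 days, then visual rating vs controls, 0 (no effect) to 100 (complete control).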

The subject of experiment [9] is johnsongrass (Sorghum halepense). The experiment in a line: Test E preemergence. The settings on record: scale 0 to 100. In a few lines:
as §3

For experiment [10], the system named is wild poinsettia (Euphorbia heterophylla). The experiment in a line: Test E preemergence. The settings on record: scale 0 to 100. Put shortly:
as §3

Experiment [11] has as its system horseweed (Conyza canadensis). The experiment in a line: Test E preemergence. The settings on record: scale 0 to 100. Put shortly:
as §3

As for `N#Cc1cccc(Oc2ncc(Cl)cn2)c1Oc1ncc(Cl)cn1` [Compound 3, 2,3-bis[(5-chloro-2-pyrimidinyl)oxy]benzonitrile], the “Plant response rating, Crabgrass, Large” value in experiment [1] (125 g ai/ha) and in experiment [1] (500 g ai/ha) was 100 in each case. Besides, the “Plant response rating, Morningglory” value in [2] (125 g ai/ha) and in experiment [2] (500 g ai/ha) was 100 in each case. Moreover, the “Plant response rating, Corn” value in the experiment on corn (Zea mays) (125 g ai/ha) is 60; in the experiment on corn (Zea mays) (500 g ai/ha), 70. In addition, the results for the “Plant response rating, Wheat” value in [3] (125 g ai/ha) and in experiment [3] (500 g ai/ha) were 30 and 80, respectively. Further, the “Plant response rating, Velvetleaf” value in [4] (125 g ai/ha) and in experiment [4] (500 g ai/ha) was 100 each time.

With `N#Cc1cccc(Oc2ncc(Cl)cn2)c1Oc1ncc(Br)cn1` [Compound 4, 2-[(5-bromo-2-pyrimidinyl)oxy]-3-[(5-chloro-2-pyrimidinyl)oxy]benzonitrile], the “Plant response rating, Sedge, Umbrella” value in experiment [5] (31 g ai/ha) was 0; in experiment [5] (62 g ai/ha), 0; in experiment [5] (125 g ai/ha), 75; in experiment [5] (250 g ai/ha), 100. Further, the “Plant response rating, Rice” value is given as 0 in the experiment with rice (Oryza sativa) (31 g ai/ha), 0 in the experiment on rice (Oryza sativa) (62 g ai/ha), 0 in the experiment on rice (Oryza sativa) (125 g ai/ha) and 30 with rice (Oryza sativa) (250 g ai/ha). Also, the “Plant response rating, Barnyardgrass” value stood at 0 in [6] (31 g ai/ha), 0 in experiment [6] (62 g ai/ha), 20 in [6] (125 g ai/ha) and 40 in experiment [6] (250 g ai/ha). The “Plant response rating, Ducksalad” value came to 0 in experiment [7] (31 g ai/ha), 40 in experiment [7] (62 g ai/ha), 100 in experiment [7] (125 g ai/ha) and 100 in [7] (250 g ai/ha).

In the case of `Clc1cnc(Oc2cccc(Br)c2Oc2ncc(Cl)cn2)nc1` [Compound 19, 2,2′-[[3-bromo-1,2-phenylene]bis(oxy)]bis[5-chloropyrimidine]], the “Crabgrass, Large plant response rating” value in [1] (125 g ai/ha) came out at 100. The “Plant response rating, Crabgrass, Large” value in experiment [1] (500 g ai/ha) was 100. Moreover, the “Morningglory plant response rating” value in experiment [2] (125 g ai/ha) was determined as 70. Besides, the “Plant response rating, Morningglory” value in experiment [2] (500 g ai/ha) was found to be 100. Besides, the “Plant response rating, Corn” value in the experiment with corn (Zea mays) (125 g ai/ha) is on record as 10; in the experiment on corn (Zea mays) (500 g ai/ha), 60. For the same molecule, the “Wheat plant response rating” value in [3] (125 g ai/ha) was 40. Moreover, the “Plant response rating, Wheat” value in experiment [3] (500 g ai/ha) is 70. Moreover, in [4] (125 g ai/ha), the “Velvetleaf plant response rating” value is given as 80. Also, in experiment [4] (500 g ai/ha), the “Plant response rating, Velvetleaf” value is reported as 90. Further, the “Plant response rating, Cocklebur” value in experiment [8] (16 g ai/ha), in experiment [8] (62 g ai/ha) and in experiment [8] (125 g ai/ha) was 0 in each case. For the same molecule, the “Plant response rating, Johnsongrass” value in [9] (16 g ai/ha) is given as 0; in experiment [9] (31 g ai/ha), 0; in experiment [9] (62 g ai/ha), 50; in experiment [9] (125 g ai/ha), 100. Further, the “Plant response rating, Poinsettia, Wild” value in experiment [10] (16 g ai/ha) is listed as 0; in experiment [10] (31 g ai/ha), 0; in [10] (62 g ai/ha) it was 15; in [10] (125 g ai/ha), 70.

Consider `Fc1cccc(Oc2ncc(Cl)cn2)c1Oc1ccc(Cl)nc1` [Compound 20], for which the “Plant response rating, Sedge, Umbrella” value stood at 0 in [5] (31 g ai/ha), 0 in experiment [5] (62 g ai/ha), 65 in experiment [5] (125 g ai/ha) and 80 in experiment [5] (250 g ai/ha). In addition, the “Plant response rating, Rice” value in the experiment with rice (Oryza sativa) (31 g ai/ha), in the experiment with rice (Oryza sativa) (62 g ai/ha), with rice (Oryza sativa) (125 g ai/ha) and with rice (Oryza sativa) (250 g ai/ha) was 0 in each case. Besides, the “Plant response rating, Barnyardgrass” value in [6] (31 g ai/ha), in experiment [6] (62 g ai/ha), in experiment [6] (125 g ai/ha) and in experiment [6] (250 g ai/ha) was 0 throughout. For the same molecule, the “Plant response rating, Ducksalad” value is on record as 0 in [7] (31 g ai/ha), 0 in experiment [7] (62 g ai/ha), 45 in experiment [7] (125 g ai/ha) and 70 in experiment [7] (250 g ai/ha).

Consider `Fc1cccc(Oc2ncc(Cl)cn2)c1Oc1ncc(Cl)cn1` [Compound 21, 2,2′-[[3-fluoro-1,2-phenylene]bis(oxy)]bis[5-chloropyrimidine]], for which the “Crabgrass, Large plant response rating” value in experiment [1] (125 g ai/ha) was determined as 100. Also, the “Plant response rating, Crabgrass, Large” value in experiment [1] (500 g ai/ha) is 100. For the same molecule, in [2] (125 g ai/ha), the “Morningglory plant response rating” value was 90. In addition, in experiment [2] (500 g ai/ha), the “Plant response rating, Morningglory” value was determined as 100. Further, the “Plant response rating, Corn” value in the experiment on corn (Zea mays) (125 g ai/ha) is recorded as 40; in the experiment on corn (Zea mays) (500 g ai/ha), 60. Besides, the “Wheat plant response rating” value in experiment [3] (125 g ai/ha) is given as 60. Also, the “Plant response rating, Wheat” value in experiment [3] (500 g ai/ha) came to 60. Moreover, in [4] (125 g ai/ha), the “Velvetleaf plant response rating” value is on record as 80. The “Plant response rating, Velvetleaf” value in experiment [4] (500 g ai/ha) is 90. Also, the results for the “Plant response rating, Cocklebur” value in experiment [8] (31 g ai/ha), in [8] (62 g ai/ha) and in experiment [8] (125 g ai/ha) were 35, 40 and 50, respectively. Besides, the “Plant response rating, Johnsongrass” value stood at 0 in experiment [9] (16 g ai/ha), 30 in experiment [9] (31 g ai/ha), 65 in [9] (62 g ai/ha) and 100 in experiment [9] (125 g ai/ha). The “Plant response rating, Poinsettia, Wild” value in experiment [10] (16 g ai/ha) was determined as 0; in [10] (31 g ai/ha) it was 10; in [10] (62 g ai/ha) it was 50; in experiment [10] (125 g ai/ha) it was 60.

`Fc1ccc(F)c(Oc2ncc(Cl)cn2)c1Oc1ncc(Cl)cn1` [Compound 34, 2,2′-[(3,6-difluoro-1,2-phenylene)bis(oxy)]bis[5-chloropyrimidine]]: the “Plant response rating, Poinsettia, Wild” value in experiment [10] (16 g ai/ha) turned out to be 0; in experiment [10] (31 g ai/ha) it was 10; in experiment [10] (62 g ai/ha), 20; in [10] (125 g ai/ha), 50. Moreover, the “Plant response rating, Horseweed” value in [11] (16 g ai/ha), in experiment [11] (31 g ai/ha), in experiment [11] (62 g ai/ha) and in [11] (125 g ai/ha) was 0 in each case.

Turning to `N#Cc1cccc(Oc2ncc(Cl)cn2)c1Oc1ncc(C(F)(F)F)cn1` [Compound 38, 3-[(5-chloro-2-pyrimidinyl)oxy]-2-[[5-(trifluoromethyl)-2-pyrimidinyl]oxy]-benzonitrile], the “Plant response rating, Johnsongrass” value is given as 0 in [9] (16 g ai/ha), 0 in experiment [9] (31 g ai/ha), 100 in experiment [9] (62 g ai/ha) and 95 in [9] (125 g ai/ha). The “Plant response rating, Horseweed” value in [11] (16 g ai/ha) stood at 0; in [11] (31 g ai/ha) it was 0; in experiment [11] (62 g ai/ha), 100; in experiment [11] (125 g ai/ha), 98.

For `Fc1cccc(Oc2ncc(C(F)(F)F)cn2)c1Oc1ncc(Cl)cn1` [Compound 42, 5-chloro-2-[2-fluoro-6-[[5-(trifluoromethyl)-2-pyrimidinyl]oxy]phenoxy]pyrimidine], the “Plant response rating, Johnsongrass” value in experiment [9] (16 g ai/ha) worked out at 80; in [9] (31 g ai/ha) it was 80; in experiment [9] (62 g ai/ha), 95; in experiment [9] (125 g ai/ha), 100. Further, the “Plant response rating, Poinsettia, Wild” value in [10] (16 g ai/ha) is 20; in [10] (31 g ai/ha), 20; in experiment [10] (62 g ai/ha), 80; in experiment [10] (125 g ai/ha), 100. Also, the “Plant response rating, Horseweed” value in [11] (31 g ai/ha) was determined as 0.

For the molecule `Fc1cccc(Oc2ncc(Cl)cn2)c1Oc1ncc(C(F)(F)F)cn1` [Compound 43, 5-chloro-2-[5-fluoro-6-[[5-(trifluoromethyl)-2-pyrimidinyl]oxy]phenoxy]pyrimidine], the “Plant response rating, Johnsongrass” value in experiment [9] (31 g ai/ha) amounted to 90; in [9] (125 g ai/ha), 100. Also, the “Plant response rating, Poinsettia, Wild” value in experiment [10] (31 g ai/ha) is listed as 65; in experiment [10] (125 g ai/ha), 100.
